Measurements reported in US8841257B2, “Inhibitors of STAT3 and uses thereof” (Board of Regents, The University of Texas System, priority 2009, dated 2014).
“Also recorded” adds a separate entry of the source.

Assays:
[1] = system: non-small cell lung cancer cell lines; experiment: Lung tumor cell viability assay, NSCLC cell lines; assay type: cell-based; conditions: 0.25-5.0 μM in DMSO; 72 h
Protocol: Lung Tumor Cell Viability Assay: H1819, H1299 and H827 lung tumor cells were seeded in 6-well plates at a density of 6×10^4, 4×10^4 and 5×10^4 cells/well, respectively. Prodrugs were dissolved in DMSO to make a stock concentration of 500 μM. The following day the cells were treated either with DMSO alone or with 0.25 μM, 0.5 μM, 1.0 μM, 2.5 μM and 5.0 μM of the compounds from Example 1, Example 16, and Example 22. Seventy two h after treatment with the drug the cells were subjected to cell viability assay using trypan blue. […] Cells were plated and after 24 hr were treated with the compound of Example 16 in DMSO. After 72 hr, cells were counted. Note that vertical axes are different for each plot.

[2] = system: STAT5; experiment: EGF-stimulated STAT5 phosphorylation in MDA-MB-468 cells; assay type: cell-based, human; conditions: 1.5 hr prodrug, then EGF 100 ng/mL 30 min
Protocol: (§1) Effect of prodrug on the phosphorylation of STAT3, STAT5 and Akt in response to Epidermal Growth Factor stimulation. MDA-MB-468 cells were prepared as above. Prodrugs were prepared as 10 mM stock solutions in DMSO and aliquots were added to the culture media to give the correct final concentrations. After 1.5 hr EGF was added at 100 ng/mL. After 30 minutes cells were collected and lysed and proteins were separated by PAGE and transferred to three PVDF filters as above. The first filter was blocked with 5% bovine serum albumin and probed for total and phosphoStat3 as above. The second filter was probed for phosphoSer473Akt and total Akt using appropriate antibodies and similar detection procedures to those used for STAT3. The third filter was probed for phosphoTyr699 Stat5 and total STAT5 using appropriate antibodies and similar detection procedures to those used for STAT3.

[3] = system: Akt; experiment: EGF-stimulated Akt Ser473 phosphorylation in MDA-MB-468 cells; assay type: cell-based, human; conditions: 1.5 hr prodrug, then EGF 100 ng/mL 30 min
Protocol: as §1

[4] = system: Focal Adhesion Kinase (FAK); experiment: Phosphorylation of Focal Adhesion Kinase Tyr861 in MDA-MB-468 cells; assay type: cell-based, human; conditions: 2 hr treatment
Text: Effect of Prodrug on the phosphorylation of Focal Adhesion Kinase (FAK) in MDA-MB-468 breast tumor cells. MDA-MB-468 cells express constitutive phosphorylation of Tyr861 of FAK (Laird, A. et al., Src Family Kinase Activity is Required For Signal Tranducer and Activator of Transcription 3 and Focal Adhesion Kinase Phosphorylation and Vascular Endothelial Growth Factor Signaling In Vivo and For Anchorage-Dependent and Independent Growth Of Human Tumor Cells, Mol Cancer Ther, 2, 461-9(2003). a unique substrate of Src upon recruitment via its SH2 domain (Calalb, M. B., et al, S. K. Focal adhesion kinase tyrosine-861 is a major site of phosphorylation by Src. Biochem Biophys Res Commun 1996, 228, 662-8 (1996.) To test for cross reactivity to the Src SH2 domain, MDA-MB-468 cell extracts were probed for phosphorylation of Tyr861 of FAK.

[5] = molecular target: STAT3 (Homo sapiens, UniProt P40763); experiment: EGF-stimulated STAT3 phosphorylation in MDA-MB-468 cells; assay type: cell-based; set-up: host or cells: MDA-MB-468 breast tumor cells; conditions: 1.5 hr prodrug, then EGF 100 ng/mL 30 min
Protocol: as §1

[6] = molecular target: T1, STAT1 (Homo sapiens, UniProt P42224); experiment: IFNγ-stimulated STAT1 phosphorylation in MDA-MB-468 cells; assay type: cell-based; set-up: host or cells: MDA-MB-468 breast tumor cells; conditions: for inhibition of Stat1 phosphorylation compared with Stat3 phosphorylation: 1.5 hr prodrug, then interferonγ 25 ng/mL 30 min; for fold less potent at inhibiting STAT1 than STAT3: MDA-MB-468 cells
T1 sequence (P42224 1-750): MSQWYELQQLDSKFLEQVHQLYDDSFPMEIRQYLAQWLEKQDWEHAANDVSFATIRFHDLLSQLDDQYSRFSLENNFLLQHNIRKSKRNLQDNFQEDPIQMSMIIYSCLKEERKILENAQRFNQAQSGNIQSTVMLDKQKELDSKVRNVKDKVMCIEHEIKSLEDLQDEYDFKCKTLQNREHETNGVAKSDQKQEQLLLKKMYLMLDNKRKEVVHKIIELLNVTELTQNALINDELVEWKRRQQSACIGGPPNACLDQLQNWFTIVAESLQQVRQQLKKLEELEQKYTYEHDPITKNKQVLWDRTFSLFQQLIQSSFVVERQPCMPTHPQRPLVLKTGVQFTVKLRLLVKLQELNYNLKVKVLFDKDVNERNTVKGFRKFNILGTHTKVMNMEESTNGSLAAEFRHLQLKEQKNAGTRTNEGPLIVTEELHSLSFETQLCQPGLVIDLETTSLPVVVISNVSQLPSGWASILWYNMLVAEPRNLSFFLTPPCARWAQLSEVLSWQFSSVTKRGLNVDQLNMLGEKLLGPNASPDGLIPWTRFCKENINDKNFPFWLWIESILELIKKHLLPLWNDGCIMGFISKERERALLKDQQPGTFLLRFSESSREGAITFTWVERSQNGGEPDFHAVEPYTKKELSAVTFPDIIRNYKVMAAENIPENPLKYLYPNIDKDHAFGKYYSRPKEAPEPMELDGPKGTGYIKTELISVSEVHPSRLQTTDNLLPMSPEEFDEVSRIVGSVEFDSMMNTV
Protocol: Effect of Prodrug on the phosphorylation of STAT1 in MDA-MB-468 breast tumor cells. MDA-MB-468 cells were prepared as above. Prodrugs were prepared as 10 mM stock solutions in DMSO and aliquots were added to the culture media to give the correct final concentrations. After 1.5 hr interferonγ was added at 25 ng/mL. After 30 minutes cells were collected and lysed and proteins were separated by PAGE and transferred to PVDF filters as above. Filters were probed for phosphoTyr701 Stat 1 and total Stat1 using appropriate antibodies and similar detection procedures to those used for Stat3.

STAT3, sequence (P40763 whole entry): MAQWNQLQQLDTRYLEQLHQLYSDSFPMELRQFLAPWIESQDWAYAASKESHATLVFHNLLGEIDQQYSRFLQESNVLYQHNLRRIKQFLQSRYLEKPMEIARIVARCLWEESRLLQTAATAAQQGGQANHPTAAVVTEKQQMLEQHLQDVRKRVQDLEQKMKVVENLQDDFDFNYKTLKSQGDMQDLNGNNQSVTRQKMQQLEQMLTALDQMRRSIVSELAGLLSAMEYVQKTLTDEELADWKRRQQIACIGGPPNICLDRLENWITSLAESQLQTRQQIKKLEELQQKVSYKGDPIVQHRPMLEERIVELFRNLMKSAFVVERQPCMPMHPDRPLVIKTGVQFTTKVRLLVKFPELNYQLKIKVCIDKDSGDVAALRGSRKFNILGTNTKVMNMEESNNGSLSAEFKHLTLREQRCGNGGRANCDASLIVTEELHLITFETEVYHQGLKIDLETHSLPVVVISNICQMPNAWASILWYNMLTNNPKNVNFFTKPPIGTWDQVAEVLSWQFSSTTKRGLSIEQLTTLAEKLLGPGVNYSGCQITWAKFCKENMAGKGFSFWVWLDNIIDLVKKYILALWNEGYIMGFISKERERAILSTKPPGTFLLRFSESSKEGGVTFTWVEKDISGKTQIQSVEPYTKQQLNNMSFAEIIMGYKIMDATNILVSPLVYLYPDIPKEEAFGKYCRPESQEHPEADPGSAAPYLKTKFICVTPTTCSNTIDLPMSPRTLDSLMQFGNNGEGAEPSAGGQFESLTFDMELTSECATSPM

EGF-induced increase in Stat3 phosphorylation [5] | inhibition of Stat1 phosphorylation compared with Stat3 phosphorylation [6] | fold less potent at inhibiting STAT1 than STAT3 [6] | Compound | growth / viability of NSCLC cell lines [1] | Stat5 phosphorylation after EGF [2] | Akt Ser473 phosphorylation after EGF [3] | phosphorylation of FAK Tyr861 [4]
effective at inhibiting | less effective | about 10 fold | C/C(=C\C(=O)N[C@H]1CCc2cccc3c2N(C1=O)[C@H](C(=O)N[C@H](C)CCC(N)=O)C3)c1ccc(C(F)(F)P(=O)(OCOC(=O)C(C)(C)C)OCOC(=O)C(C)(C)C)cc1 [Example 1, (2E)-3-[4-[[bis[(2,2-dimethyl-1-oxopropoxy)methoxy]phosphinyl]difluoromethyl]phenyl]-but-2-enoyl-Haic-(R)-4-aminopentamide] | inhibition | no effect | no effect | no reduction; also recorded: do not inhibit
effective at inhibiting | less effective | about 10 fold | CCCC[C@H](NC(=O)/C=C(\C)c1ccc(C(F)(F)P(=O)(OCOC(=O)C(C)(C)C)OCOC(=O)C(C)(C)C)cc1)C(=O)N1C[C@H]2CC2[C@H]1C(=O)N[C@@H](CCC(N)=O)[C@@H](C)OCc1ccccc1 (stereo partly drawn) [Example 16, (2E)-3-[4-[[bis[(2,2-dimethyl-1-oxopropoxy)methoxy]phosphinyl]difluoromethyl]phenyl]-but-2-enoyl-norleucinyl-(2S,3R,4S)-methanoprolinyl-(4S,5R)-4-amino-5-benzyloxyhexamide] | inhibition of growth | no effect | no effect | no reduction; also recorded: do not inhibit
